Data taken from paper PMC7373994 (2020).

Key:
Assay in all cases: in-line probing
[1] = tested on: 68 tauA M3 (G6C, A7U) (RNA, riboswitch) GGAGAGUCUGUAGAAGCGGUCAGUGCAGGCAGCUGCGCGGGACAUUGCUCAGCAA; conditions: 100 mM KCl, 20 mM MgCl2; 100 mM Tris-HCl pH 8.3, 19°C
[2] = tested on: 53 tauA (RNA, riboswitch) GGAGAGUGAGUAGAAGCGGUCAGUGCAGGCAGCUGCGCGGGACAUUGCUCAGCAA; conditions: 100 mM KCl, 20 mM MgCl2, 100 mM Tris-HCl pH 8.3, 19°C; for KD: apparent; for binding: tested up to 1 mM, 53 or 68 tauA construct not specified
[3] = tested on: 68 tauA M1 (A12U) (RNA, riboswitch) GGAGAGUGAGUAGUAGCGGUCAGUGCAGGCAGCUGCGCGGGACAUUGCUCAGCAACCAUUUCGCGGUUCA; conditions: 100 mM KCl, 20 mM MgCl2, 100 mM Tris-HCl pH 8.3, 19°C
[4] = tested on: 68 tauA (RNA, riboswitch) GGAGAGUGAGUAGAAGCGGUCAGUGCAGGCAGCUGCGCGGGACAUUGCUCAGCAACCAUUUCGCGGUUCA; conditions: 100 mM KCl, 20 mM MgCl2; 100 mM Tris-HCl pH 8.3, 19°C; qualitative, wild type compared with mutants
[5] = tested on: 68 tauA M2 (G38C) (RNA, riboswitch) GGAGAGUGAGUAGAAGCGGUCAGUGCAGGCAGCUGCGCGCGACAUUGCUCAGCAACCAUUUCGCGGUUCA; conditions: 100 mM KCl, 20 mM MgCl2, 100 mM Tris-HCl pH 8.3, 19°C

O=c1[nH]c(=O)c2[nH]cnc2[nH]1
binding [1]: no | KD ([2]; 36 h, two repeats): ~ 3.7 µM | binding [3]: no | binding [4]: yes | binding ([5]; artifact modulation at highest concentration): no

O=c1[nH]c(=O)c2[nH]c(=O)[nH]c2[nH]1
KD ([2]; Figure S2C legend prints 4.3 µM instead): ~ 25 µM | binding ([3]; tested up to 1000 µM): no | binding ([5]; tested up to 1000 µM): no

Cn1c(=O)[nH]c2c(=O)[nH]c(=O)[nH]c21
binding [2]: no

Cn1c(=O)[nH]c2[nH]c(=O)[nH]c(=O)c21
binding [2]: no

Cn1c(=O)[nH]c(=O)c2[nH]c(=O)[nH]c21
binding [2]: no

O=c1[nH]cnc2c1ncn2[C@@H]1O[C@H](CO)[C@@H](O)[C@H]1O
binding [2]: no
